Test results reported in patent US20250271418A1, “ANTICANCER DRUG ASSESSMENT METHODS AND ANTICANCER DRUG ASSESSMENT KITS” (TOPPAN HOLDINGS INC., priority 2022, published 2025).
Read-outs that look alike come from different tables or passages of the source.

Tests used:
Assay in all cases: cells
[1] = system: HT29, a human colorectal adenocarcinoma cell line; details: HT-29, 72 h, read-out: Cell viability (%)
[2] = system: HT29, a human colorectal adenocarcinoma cell line; details: 72 h, read-out: Cell viability (%)
[3] = system: HT29, a human colorectal adenocarcinoma cell line; details: 72 h, read-out: Cell viability (%); remark: listed apart in the source

## O=c1[nH]cc(F)c(=O)[nH]1 [5-FU, 5-fluorouracil]
[1]
  viability at 1 µM: 99.3 ± 21%
  viability at 10 µM: 75.3 ± 12.4%
  viability at 100 µM: 54.3 ± 10.2%
  viability at 1000 µM: 40.3 ± 8.34%
[2]
  viability at 1 µM: 100 ± 13.2%
[3]
  viability at 1 µM: 100 ± 31.2%
